The subject of one data set is AD 5XFAD mice model. Particulars: activation of ERp57, cerebral cortex and hippocampus, ref Tohda et al., [2012]; cited from earlier work. An excerpt: ERp57 has been previously linked to key processes in neurodegeneration and particularly in AD pathogenesis.
The subject of another data set is tau. More on the design: method as in Xu et al., [2013]. To be noted: within the cell; ref Xu et al., [2013]; cited from earlier work.
A further data set addresses T1, ERp57 (Homo sapiens, UniProt P30101).
T1 construct: made in house; host or cells: E. coli BL21, vector pET21
T1 sequence (P30101 25-505): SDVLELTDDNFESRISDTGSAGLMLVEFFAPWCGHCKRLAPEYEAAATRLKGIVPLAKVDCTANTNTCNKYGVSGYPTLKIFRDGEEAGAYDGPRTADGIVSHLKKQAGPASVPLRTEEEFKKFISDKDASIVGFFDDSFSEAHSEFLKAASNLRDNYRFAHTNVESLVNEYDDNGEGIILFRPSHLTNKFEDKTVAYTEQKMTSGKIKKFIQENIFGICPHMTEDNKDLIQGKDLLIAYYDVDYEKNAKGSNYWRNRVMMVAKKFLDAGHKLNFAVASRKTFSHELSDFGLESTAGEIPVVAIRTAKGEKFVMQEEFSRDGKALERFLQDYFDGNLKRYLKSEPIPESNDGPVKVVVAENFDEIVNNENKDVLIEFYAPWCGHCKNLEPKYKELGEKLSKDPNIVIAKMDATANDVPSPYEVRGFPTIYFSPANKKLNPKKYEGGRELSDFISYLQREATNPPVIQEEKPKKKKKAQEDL
As to the kind of experiment: Surface plasmon resonance, Aβ25−35 binding to immobilized ERp57. To be noted: SPR, ERp57 on COOH5 sensorchip; global fitting with one binding site; non-aggregated Aβ25−35 15.6 μM–1.0 mM; HBSP buffer pH 7.4; 25°C; read-out: overall K D. An excerpt:
Human recombinant PDIA3 was cloned and expressed in E. coli strain BL21 (Invitrogen™, catalog number C600003) using the expression vector pET21 (Novagen, catalog number 69770) as described by Coppari (Coppari et al., [2002]). The coding sequence for the second redox‐active domain (aʹ domain, residues 377–505) was amplified by PCR as previously described and cloned in the expression vector pET29 (Novagen) (Grillo et al., [2002]). Recombinant proteins were expressed in E. coli strain BL21 and purified by ammonium sulfate fractionation, ion exchange, and heparin chromatography (Grillo et al., [2006]). Protein purification was evaluated by SDS‐PAGE and concentration was determined spectrophotometrically (PDIA3 Ɛ280 reduced form = 44 810 M^−1 cm^−1, aʹ domain Ɛ280 reduced form = 14 400 M^−1 cm^−1). Rabbit anti‐ERp57 primary antibody will be shared upon reasonable request.
SPR experiments were performed with a SensiQ Pioneer apparatus. […] The amount of immobilized ERp57 was detected by mass concentration‐dependent changes in the refractive index on the sensorchip surface and corresponded to about 4000 resonance units (RU). […] Values of the plateau signal at steady‐state (Req) and full fittings with 1, 2, and 3 sites were calculated from kinetic evaluation of the sensorgrams using the Qdat 4.0 program.

A further data set relates to SH‐SY5Y cells. Description: MTT cell viability assay. In kind it is cell-based, human. To be noted: Aβ25−35 aggregated with ERp57. Here is the method: For the cell viability experiments, 96‐well plates were seeded with 10 000 cells/well. After 24 h, cells were treated with 30 μM Aβ25−35 aggregated for 72 h in the presence or in the absence of 0.12 μM of ERp57 or GST recombinant proteins (in a 1:250 ratio), in a final volume of 150 μl per well. Plates were incubated for 24 h in an incubator at 37°C, 5% of CO2, and 99% RH. Thereafter, 20 μl of (3‐[4,5‐Dimethylthiazol‐2‐yl]‐2,5‐Diphenyltetrazolium Bromide) (MTT) dye (stock solution 5 mg/ml in PBS) (catalog number #M2003) was added to the wells and incubated for additional 2 h at 37°C and 5% CO2. Water‐insoluble formazan crystals were dissolved in 100 μl of DMSO (catalog number #472301). For spectrophotometric measurements, Appliscan® plate reader (Thermo scientific) was used at the wavelength 570 nm, with reference set at 690 nm.

Peptide text beside a SMILES is read from it.

As for `C[C@@H]1CC[C@@]2(OC1)O[C@H]1C[C@H]3[C@@H]4CC=C5C[C@@H](O)CC[C@]5(C)[C@H]4CC[C@]3(C)[C@H]1[C@@H]2C` [diosgenin], in the data set on AD 5XFAD mice model, the “object recognition memory; amyloid plaques and neurofibrillary tangles” value is “significantly improves performance of object recognition memory and reduces amyloid plaques and neurofibrillary tangles”. Turning to PDI: protein disulfide isomerase, the “effect on tau fibril formation” value in the data set on tau was “able to reduce the formation of tau fibrils”.

Consider `CC[C@H](C)[C@H](NC(=O)[C@H](C)NC(=O)CNC(=O)[C@H](CCCCN)NC(=O)[C@H](CC(N)=O)NC(=O)[C@H](CO)NC(=O)CN)C(=O)N[C@H](C(=O)NCC(=O)N[C@@H](CC(C)C)C(=O)N[C@@H](CCSC)C(=O)O)[C@@H](C)CC` [Aβ25−35] (H-GSNKGAIIGLM-OH), for which the Kd at ERp57 stood at 33 ± 2 µM. In addition, the “toxicity of Aβ25−35 bound by ERp57” value in the data set with SH‐SY5Y cells is recorded as “no longer leads to toxicity”.

These data come from article PMC9543391, “ERp57 chaperon protein protects neuronal cells from Aβ‐induced toxicity” (Journal of Neurochemistry, 2022).
